{
  "source": "patent US20240158385A1",
  "about": "“NOVEL COMPOUNDS” (Cerevance, Inc., priority 2021, published 2024)",
  "key": {"human KCNK13": {"target": "T1, human KCNK13 (Homo sapiens, UniProt Q9HB14)", "T1 construct": "expressed in transfected cells", "T1 sequence (Q9HB14 1-408)": "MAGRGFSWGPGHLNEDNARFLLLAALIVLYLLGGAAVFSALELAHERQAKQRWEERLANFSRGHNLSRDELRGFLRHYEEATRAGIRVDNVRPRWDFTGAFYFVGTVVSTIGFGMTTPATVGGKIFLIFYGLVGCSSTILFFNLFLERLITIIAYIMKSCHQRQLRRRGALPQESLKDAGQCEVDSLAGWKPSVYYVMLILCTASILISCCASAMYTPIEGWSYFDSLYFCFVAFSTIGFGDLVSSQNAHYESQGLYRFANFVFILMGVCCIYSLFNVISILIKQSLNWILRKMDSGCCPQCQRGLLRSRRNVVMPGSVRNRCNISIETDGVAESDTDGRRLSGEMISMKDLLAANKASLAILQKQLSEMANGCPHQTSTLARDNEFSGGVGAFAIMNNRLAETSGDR", "test": "KCNK13 antagonist activity, thallium (Tl+) flux FLIPR assay", "format": "cell-based", "method_in_brief": "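HEK 293 cells stably expressing human KCNK13 loaded with Tl+-sensitive dye for 1 h at room temperature. Compounds (10-point half-log curves) preincubated 15 min before thallium sulfate stimulus, fluorescence tracked by FLIPR. IC50 from ten-point curves, each point the mean of two wells.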"}, "[1]": {"tested_on": "IL-1β, mouse primary microglia", "test": "Inflammasome assay in primary mouse postnatal microglia using LPS/0 mM extracellular K+ (IL-1β levels)", "format": "cell-based", "details": "100 ng/mL LPS 3.5 hours, compound 30 minutes, then K+ free buffer 2 hours, IL-1β by MesoScale Discovery", "protocol": "Newly shaken mouse microglia cells were added to a 96-well plate and left to adhere overnight. After this time, 100 ng/mL LPS was added to each well and incubated at 37° C. for 3.5 hours, at which point compound addition was undertaken and plates incubated at 37° C. for an additional 30 minutes. After this time, the medium in each well was removed and replaced with K^+ free buffer and the plates then incubated for an additional 2 hours at 37° C. Measurement of IL-1βlevels in the sample wells was undertaken using MesoScale Discovery™ MESO QuickPlex SQ 120 and […] from mouse IL-1β DuoSet ELISA kit (R&D System, DY401)."}, "[2]": {"details": "HEK 293 cells stably expressing human KCNK13, Tl+ sensitive dye, FLIPR, compounds 15 minutes prior to thallium sulfate, 10 point half log curves from 10 PM, read-out: hKCNK13 IC50"}},
  "note": "Where two headings read alike, the source gives them in different places.",
  "data": [
    {"smiles": "Nc1nonc1-c1nc2cccc(F)c2n1Cc1cccnc1", "note": "(single isomer, unassigned) [Example 86, 4-[7-fluoro-1-(pyridin-3-ylmethyl)benzimidazol-2-yl]-1,2,5-oxadiazol-3-amine]", "values": [
      {"measurement": "IC50", "setting": "human KCNK13; [2]", "result": "< 50", "unit": "nM"},
      {"measurement": "IC50", "setting": "[1]", "result": "≤ 50", "unit": "nM"}
    ]},
    {"smiles": "Nc1nonc1-c1nc2cccc(F)c2n1Cc1ccncc1", "note": "(single isomer, unassigned) [Example 120, 4-[7-fluoro-1-(pyridin-4-ylmethyl)benzimidazol-2-yl]-1,2,5-oxadiazol-3-amine]", "values": [
      {"measurement": "IC50", "setting": "human KCNK13; [2]", "result": "< 50", "unit": "nM"},
      {"measurement": "IC50", "setting": "[1]", "result": "≤ 50", "unit": "nM"}
    ]},
    {"smiles": "Nc1nonc1-c1nc2ccccc2n1Cc1cncnc1", "note": "[Example 21, 4-[1-(pyrimidin-5-ylmethyl)benzimidazol-2-yl]-1,2,5-oxadiazol-3-amine]", "values": [
      {"measurement": "IC50", "setting": "human KCNK13", "result": "< 50", "unit": "nM"},
      {"measurement": "IC50", "setting": "[1]", "result": "≤ 100", "unit": "nM"}
    ]},
    {"smiles": "Nc1nonc1-c1nc2cccc(F)c2n1Cc1cnccn1", "note": "[Example 32, 4-[7-fluoro-1-(pyrazin-2-ylmethyl)benzimidazol-2-yl]-1,2,5-oxadiazol-3-amine]", "values": [
      {"measurement": "IC50", "setting": "human KCNK13; [2]", "result": "< 50", "unit": "nM"},
      {"measurement": "IC50", "setting": "[1]", "result": "≤ 200", "unit": "nM"}
    ]},
    {"smiles": "Cc1nonc1-c1nc2cccc(F)c2n1Cc1cncnc1", "note": "[Example 49, 3-[7-fluoro-1-(pyrimidin-5-ylmethyl)benzimidazol-2-yl]-4-methyl-1,2,5-oxadiazole]", "values": [
      {"measurement": "IC50", "setting": "human KCNK13; [2]", "result": "< 100", "unit": "nM"},
      {"measurement": "IC50", "setting": "[1]", "result": "≤ 50", "unit": "nM"}
    ]},
    {"smiles": "Cc1nonc1-c1nc2ccccc2n1Cc1cncnc1", "note": "[Example 57, 3-methyl-4-[1-(pyrimidin-5-ylmethyl)benzimidazol-2-yl]-1,2,5-oxadiazole]", "values": [
      {"measurement": "IC50", "setting": "human KCNK13; [2]", "result": "< 100", "unit": "nM"},
      {"measurement": "IC50", "setting": "[1]", "result": "≤ 200", "unit": "nM"}
    ]},
    {"smiles": "Nc1nonc1-c1nc2ccccc2n1Cc1ccncc1", "note": "[Example 71, 4-[1-(pyridin-4-ylmethyl)benzimidazol-2-yl]-1,2,5-oxadiazol-3-amine]", "values": [
      {"measurement": "IC50", "setting": "human KCNK13; [2]", "result": "< 100", "unit": "nM"},
      {"measurement": "IC50", "setting": "[1]", "result": "≤ 200", "unit": "nM"}
    ]},
    {"smiles": "Nc1nonc1-c1nc2c(F)ccc(F)c2n1Cc1ccncc1", "note": "[Example 155, 4-(4,7-difluoro-1-(pyridin-4-ylmethyl)-benzimidazol-2-yl)-1,2,5-oxadiazol-3-amine]", "values": [
      {"measurement": "IC50", "setting": "human KCNK13; [2]", "result": "< 50", "unit": "nM"}
    ]},
    {"smiles": "Nc1nocc1-c1nc2cccc(F)c2n1Cc1cccnn1", "note": "[Example 158, 4-(7-fluoro-1-(pyridazin-3-ylmethyl)-benzimidazol-2-yl)isoxazol-3-amine]", "values": [
      {"measurement": "IC50", "setting": "human KCNK13; [2]", "result": "< 5000", "unit": "nM"}
    ]},
    {"smiles": "Nc1nonc1-c1nc2ncc(F)cc2n1Cc1ccc(Cl)nc1", "note": "[Example 159, 4-(1-((6-chloropyridin-3-yl)methyl)-6-fluoro-1H-imidazo[4,5-b]pyridin-2-yl)-1,2,5-oxadiazol-3-amine]", "values": [
      {"measurement": "IC50", "setting": "human KCNK13", "result": "< 50", "unit": "nM"}
    ]},
    {"smiles": "Nc1nonc1-c1nc2ncc(F)cc2n1Cc1cncnc1", "note": "[Example 160, 4-(6-fluoro-1-(pyrimidin-5-ylmethyl)-1H-imidazo[4,5-b]pyridin-2-yl)-1,2,5-oxadiazol-3-amine]", "values": [
      {"measurement": "IC50", "setting": "human KCNK13; [2]", "result": "< 500", "unit": "nM"}
    ]},
    {"smiles": "C[C@@H](c1cccnc1)n1c(-c2nonc2N)nc2cccc(F)c21", "note": "[Example 161, (S)-4-(7-fluoro-1-(1-(pyridin-3-yl)ethyl)-benzimidazol-2-yl)-1,2,5-oxadiazol-3-amine]", "values": [
      {"measurement": "IC50", "setting": "human KCNK13; [2]", "result": "< 1000", "unit": "nM"}
    ]},
    {"smiles": "CNS(=O)(=O)c1ccc(Cn2c(-c3nonc3C)nc3ccccc32)cn1", "note": "[Example 164, N-methyl-5-((2-(4-methyl-1,2,5-oxadiazol-3-yl)-benzimidazol-1-yl)methyl)pyridine-2-sulfonamide]", "values": [
      {"measurement": "IC50", "setting": "human KCNK13; [2]", "result": "< 1000", "unit": "nM"}
    ]},
    {"smiles": "Cc1nonc1-c1nc2cccnc2n1Cc1cnc(C#N)nc1", "note": "[Example 165, 5-((2-(4-methyl-1,2,5-oxadiazol-3-yl)-3H-imidazo[4,5-b]pyridin-3-yl)methyl)pyrimidine-2-carbonitrile]", "values": [
      {"measurement": "IC50", "setting": "human KCNK13; [2]", "result": "< 100", "unit": "nM"}
    ]},
    {"smiles": "Nc1nonc1-c1nc2cccc(F)c2n1Cc1ccc(OC(F)(F)F)nc1", "note": "[Example 176, 4-(7-fluoro-1-((6-(trifluoromethoxy)pyridin-3-yl)methyl)-benzimidazol-2-yl)-1,2,5-oxadiazol-3-amine]", "values": [
      {"measurement": "IC50", "setting": "human KCNK13; [2]", "result": "< 5000", "unit": "nM"}
    ]},
    {"smiles": "N#Cc1ccc(Cn2c(-c3nonc3N)nc3cccnc32)nn1", "note": "[Example 177, 6-((2-(4-amino-1,2,5-oxadiazol-3-yl)-3H-imidazo[4,5-b]pyridin-3-yl)methyl)pyridazine-3-carbonitrile]", "values": [
      {"measurement": "IC50", "setting": "human KCNK13; [2]", "result": "< 1000", "unit": "nM"}
    ]},
    {"smiles": "CNc1nonc1-c1nc2cccc(F)c2n1Cc1cccnn1", "note": "[Example 178, 4-(7-fluoro-1-(pyridazin-3-ylmethyl)-benzimidazol-2-yl)-N-methyl-1,2,5-oxadiazol-3-amine]", "values": [
      {"measurement": "IC50", "setting": "human KCNK13; [2]", "result": "< 5000", "unit": "nM"}
    ]},
    {"smiles": "Nc1nonc1-c1nc2c(F)cccc2n1Cc1cccnn1", "note": "[Example 179, 4-(4-fluoro-1-(pyridazin-3-ylmethyl)-benzimidazol-2-yl)-1,2,5-oxadiazol-3-amine]", "values": [
      {"measurement": "IC50", "setting": "human KCNK13; [2]", "result": "< 200", "unit": "nM"}
    ]},
    {"smiles": "CCS(=O)(=O)c1ccc(Cn2c(-c3nonc3C)nc3ccccc32)cn1", "note": "[Example 180, 3-(1-((6-(ethylsulfonyl)pyridin-3-yl)methyl)-benzimidazol-2-yl)-4-methyl-1,2,5-oxadiazole]", "values": [
      {"measurement": "IC50", "setting": "human KCNK13; [2]", "result": "< 500", "unit": "nM"}
    ]},
    {"smiles": "CSc1ccc(Cn2c(-c3nonc3C)nc3ccccc32)cn1", "note": "[Example 181, 3-methyl-4-(1-((6-(methylthio)pyridin-3-yl)methyl)-benzimidazol-2-yl)-1,2,5-oxadiazole]", "values": [
      {"measurement": "IC50", "setting": "human KCNK13; [2]", "result": "< 500", "unit": "nM"}
    ]},
    {"smiles": "Cc1conc1-c1nc2cccc(F)c2n1Cc1cccnn1", "note": "[Example 182, 3-(7-fluoro-1-(pyridazin-3-ylmethyl)-benzimidazol-2-yl)-4-methylisoxazole]", "values": [
      {"measurement": "IC50", "setting": "human KCNK13; [2]", "result": "< 200", "unit": "nM"}
    ]},
    {"smiles": "Cc1nonc1-c1nc2c(F)ccc(F)c2n1Cc1cccnn1", "note": "[Example 185, 3-(4,7-difluoro-1-(pyridazin-3-ylmethyl)-benzimidazol-2-yl)-4-methyl-1,2,5-oxadiazole]", "values": [
      {"measurement": "IC50", "setting": "human KCNK13; [2]", "result": "< 50", "unit": "nM"}
    ]},
    {"smiles": "Nc1conc1-c1nc2cccc(F)c2n1Cc1cccnn1", "note": "[Example 186, 3-(7-fluoro-1-(pyridazin-3-ylmethyl)-benzimidazol-2-yl)isoxazol-4-amine]", "values": [
      {"measurement": "IC50", "setting": "human KCNK13; [2]", "result": "< 500", "unit": "nM"}
    ]}
  ]
}
